In data set [1] the target is T1, human albumin (Homo sapiens, UniProt P02768).
T1 construct: purchased Sigma
In words: Equilibrium dialysis binding to human albumin. To be noted: pH 7.4, equilibrium dialysis, read-out: equilibrium dissociation constant (Kd). As to the method: (§1) To determine whether albumin is the tasquinimod binding protein in plasma, albumin was removed from human plasma using an albumin depletion kit (Thermo Scientific cat # 85160). The albumin depleted plasma was then tested for its protein binding as described above. The dissociation constant (kd) for tasquinimod binding was determined based upon equilibrium dialysis of a mixture of 4mg/ml of the species (i.e., human, bovine, and mouse) specific albumin obtained from Sigma with 2μM of ^14C-labeled tasquinimod in PBS pH 7.4 buffer using a 96-well equilibrium dialyzer™ (Harvard Apparatus, Holliston,MA).
(In equilibrium dialysis only unbound substance equilibrates across the membrane.)

For data set [2], the target named is T2, bovine albumin (Bos taurus, UniProt P02769).
T2 construct: purchased Sigma
In words: Equilibrium dialysis binding to bovine albumin. To be noted: pH 7.4, equilibrium dialysis, read-out: equilibrium dissociation constant (Kd). As to the method:
as §1

The target of data set [3] is human serum albumin (HSA) (Homo sapiens, UniProt P02768). Description: Reversibility of albumin binding (dialysis against drug free HSA). To be noted: after 4 hours of dialysis, pH 7.4. As to the method:
In additional studies, 200 μg (i.e., 3nmol) of human serum albumin (HSA) was incubated with 400 pmoles of ^14C-labeled tasquinimod at pH 7.4 so that 50% of the drug is protein bound. This solution was then placed in a dialysis chamber opposite an equal volume of a solution containing 8 mg (i.e., 120 nmoles) of drug free HSA at pH 7.4 separated by a membrane which is permeable to unbound free tasquinimod, but impermeable to albumin. The 8 mg of HSA in the initial drug free side was chosen because this amount of albumin can bind 98% of the drug when exposed to 400 pmoles of tasquinimod.

Data set [4] in a line: Plasma pharmacokinetics after oral gavage in nude mice bearing CWR-22Rv1 xenografts. Conditions: for half-life: po, 5 mg/kg. It counts as in vivo, mouse. As to the method:
To determine the PK of tasquinimod, nude mice with growing (i.e., 200-400 mm^3) CWR-22Rv1 human prostate cancer xenografts were given ^14C-radiolabeled drug at a dose of 5 mg/kg via oral gavage and the plasma and tissue (i.e., liver, kidney, and tumor) drug concentration determined. Maximum tasquinimod plasma concentration is reached within 1 hour after oral gavage of mice, Figure 1C. After this absorption phase, the plasma concentration declines bi-exponentially as the sum of two first-order processes involving tissue distribution, with the plasma concentration remaining above 1 μM for at least 24 hours, Figure 1D. These PK results support a two-compartment model composed of a central and peripheral compartment. In the absorption phase, the apparent volume of distribution is low (i.e., 0.31 L/kg) but is still more than 3 times the total volume of the blood (i.e., 0.1 L/kg) and is equal to the extracellular body fluid (i.e. 0.2 L/kg) plus the total volume of blood in a mouse (i.e., […]).
Male nude mice bearing 200-300mm^3 CWR-22Rv1 cancers were given ^14C-labeled tasquinimod at a dose of 5 mg/kg via oral gavage. At times ranging from 30 min to 24 hour, groups of 4-6 mice were anaesthetized with ketamine and 1 ml of heparinized blood collected by cardiac puncture, followed by subsequent cardiac perfusion of saline to remove blood associated drug. An aliquot of liver, kidney, and cancer was removed, weighed and then homogenized. The radioactivity in 10 μL aliquots of tissue homogenates and blood plasma was determined using a liquid scintillation counter and used to calculate the total amount of tasquinimod plus its metabolites per gram of tissue or per ml of blood. The remaining sample volume was deproteinated with acetonitrile and the radioactivity of an aliquot of the supernatant determined and the remaining supernatant lyophilized, resuspended initially with 0.1mL dimethyl sulfoxide and diluted by the addition of 0.9mL deionized water prior to injection into the HPLC. The HPLC system consisted of Waters pumps using a Waters gradient controller to deliver mobile phase at a flow rate of 1mL per minute using a Supelcosil ABZ+ C18 column that is 150mm long by 4.6mm diameter and has 5μm particle size. The metabolites were separated using a linear gradient in which the starting mobile phase was 35% acetonitrile: 65% water: 0.1% Trifluoroacetic acid (TFA) increasing to 50% acetonitrile: 50% water: 0.1%TFA over 25 minutes, and then increased rapidly to 98% acetonitrile: 2% water: 0.1%TFA and held until 33 minutes before it is returned to the initial conditions for the next run. Fractions were collected and the radioactivity determined by scintillation counting. As controls, the individual elution time of non-radiolabeled standard solutions of the various tasquinimod metabolites was determined using UV absorption at 215nm. The results were expressed as concentration based upon tissue volume, assuming 1gram wet weight equals 1ml, or normalized to tissue vascular volume.

In data set [5] the test system is CWR-22Rv1 prostate cancers. In words: Vascular volume, albumin-Evans Blue accumulation (EPR effect) and growth in CWR-22Rv1 bearing mice treated with tasquinimod. The format is in vivo, mouse. As to the method:
To evaluate the potential importance of an EPR effect for enhancing tumor specific tasquinimod uptake and thus anti-cancer potency, albumin retention in plasma and normal tissue vs. prostate cancer was determined. To do this, nude mice bearing CWR-22Rv1 prostate cancers were injected intravenously (IV) with Evans Blue (EB) at a dose (10mg/kg) so that all of the dye is initially bound to albumin within the blood. Twenty-four hours later, the amount of albumin-EB complex retained in plasma vs. accumulated in liver, kidney, or CWR-22Rv1 prostate cancers determined. The results are expressed as concentration of extractable albumin-EB in plasma vs. the specified tissue. These studies document that prostate cancers accumulate a concentration of albumin-EB that is equal to that in the plasma by 24 hours, Figure 3C. When normalized to vascular volume, the albumin-EB accumulation by prostate cancers is more than two fold greater (p<0.05) compared to liver and more than 8 fold greater (p<0.05) compared to kidney, Figure 3C. […] Such continuous treatment with tasquinimod decreased the vascular volume within the cancers by nearly half (p<0.05), Figure 3C. […]
Tissue vascular volumes for liver, kidney, and CWR-22Rv1 cancers were determined previously via intravenous infusion of^51 Chromium (Perkin Elmer, Shelton, CT) labeled red blood cells and the result expressed as percent vascular volume as described previously.
EPR effect was determined using Evans Blue as described previously with the modification that 24 hours after the albumin in the blood of tumor bearing nude mice was labeled via IV injection of Evans Blue (EB) at a dose of 10mg/kg, the animals were anesthetized, blood collected, and then animals were perfused with saline to remove blood from the host tissues before harvesting liver, kidney, and prostate cancer xenograft tissue. The results are expressed as the concentration of EB-labeled albumin retained in the blood or specified tissue.

Details of data set [6]: method as in PMID 16955399. To be noted: adult male mice, 0.1-30 mg/kg via gavage or drinking water; cited from earlier work.

Read-outs that look alike come from different tables or passages of the source.

T2 sequence (P02769 25-607): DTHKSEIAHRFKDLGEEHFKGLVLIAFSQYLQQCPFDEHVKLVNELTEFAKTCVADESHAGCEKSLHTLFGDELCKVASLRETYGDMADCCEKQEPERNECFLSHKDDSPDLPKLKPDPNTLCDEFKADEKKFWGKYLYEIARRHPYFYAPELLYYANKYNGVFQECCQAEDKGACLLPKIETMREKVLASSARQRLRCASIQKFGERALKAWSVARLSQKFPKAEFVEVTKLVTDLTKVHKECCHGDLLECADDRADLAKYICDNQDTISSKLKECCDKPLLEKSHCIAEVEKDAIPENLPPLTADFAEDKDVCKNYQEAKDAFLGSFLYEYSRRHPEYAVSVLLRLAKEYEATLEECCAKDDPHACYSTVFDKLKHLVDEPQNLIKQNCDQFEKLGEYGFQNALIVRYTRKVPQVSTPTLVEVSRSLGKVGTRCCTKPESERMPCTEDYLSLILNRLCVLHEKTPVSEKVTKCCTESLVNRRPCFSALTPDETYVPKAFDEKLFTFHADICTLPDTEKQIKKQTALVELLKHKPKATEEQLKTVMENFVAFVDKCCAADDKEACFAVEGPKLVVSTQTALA
Chain of human serum albumin (HSA) (P02768 25-609): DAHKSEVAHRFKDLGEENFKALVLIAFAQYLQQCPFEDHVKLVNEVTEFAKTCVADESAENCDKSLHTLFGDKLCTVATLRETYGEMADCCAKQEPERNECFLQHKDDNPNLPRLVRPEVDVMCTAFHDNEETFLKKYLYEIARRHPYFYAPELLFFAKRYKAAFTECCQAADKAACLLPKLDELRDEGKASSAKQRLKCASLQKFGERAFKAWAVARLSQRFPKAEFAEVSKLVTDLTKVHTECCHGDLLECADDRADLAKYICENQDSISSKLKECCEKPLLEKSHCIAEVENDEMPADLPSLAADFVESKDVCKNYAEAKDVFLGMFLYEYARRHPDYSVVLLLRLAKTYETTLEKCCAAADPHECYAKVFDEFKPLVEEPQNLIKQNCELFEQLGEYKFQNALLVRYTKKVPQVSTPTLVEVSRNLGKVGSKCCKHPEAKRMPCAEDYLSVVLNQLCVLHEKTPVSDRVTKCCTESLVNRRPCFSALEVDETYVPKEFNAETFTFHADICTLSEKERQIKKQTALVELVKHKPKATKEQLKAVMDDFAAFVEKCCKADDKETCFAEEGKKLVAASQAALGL
T1 sequence (P02768 25-609): as above

Broadly, the Kd is the concentration at which binding is half-saturated. As a reminder, the half-life is the time in which the quantity being followed falls by half. Broadly, the Cmax is the maximum level reached in the sampled fluid or tissue. In the case of `COc1cccc2c1c(O)c(C(=O)N(C)c1ccc(C(F)(F)F)cc1)c(=O)n2C` [Tasquinimod], the Kd in data set [1] amounted to 24 ± 4 µM; in data set [2] it was 31 ± 6 µM. In addition, the “initial protein bound tasquinimod released” value in data set [3] worked out at 65 ± 9%. The “Cmax for protein free-tasquinimod” value in data set [4] (5 mg/kg oral) is ~ 0.24 μM. Moreover, the “time plasma concentration remains above 1 μM” value in data set [4] (5 mg/kg oral gavage, nude mice) is listed as “at least 24 hours”. Further, the “increase in plasma elimination half-life on ketoconazole co-treatment” value in data set [4] (5 mg/kg oral tasquinimod with ketoconazole 25mg/kg/day oral) was “more than 8 fold”. The “apparent volume of distribution” value in data set [4] (absorption phase, 5 mg/kg oral) worked out at 0.31 L/kg. In data set [4] (fractionated whole blood, 4hours post oral dosing), the “fraction of blood drug located in the plasma and not in blood cells” value is on record as greater than 98%. Moreover, the Tmax in data set [4] (male, mouse, plasma, 5 mg/kg oral gavage, nude mice, read-out: time to maximum plasma concentration) is no more than 1 h. Also, the half-life is 3.2 h in data set [4] (male, nude, mouse, plasma, 5 mg/kg oral, read-out: half-life of α-distribution phase (converted)) and greater than 10 h in data set [4] (male, nude, mouse, plasma, 5 mg/kg oral, read-out: β-elimination phase half-life). The highest concentration (Cmax) in data set [4] (male, nude, mouse, plasma, 5 mg/kg oral, read-out: total plasma Cmax) was roughly 12 µM. In addition, the “Percent Vascular Volume (Prostate Cancer)” value in data set [5] (10mg/kg/day for 30 days) came to 1.4±0.4. Moreover, in data set [5] (10 mg/kg/day for a month), the “decrease of vascular volume within the cancers” value is “nearly half”. The “inhibition in cancer growth” value in data set [5] (CWR-22Rv1, 10 mg/kg/day for a month) is reported as “greater than 80%”. For the same compound, the “bioavailability and oral absorption” value in data set [6] is recorded as “excellent”.

These data come from article PMC4226669, “Anti-cancer potency of tasquinimod is enhanced via albumin-binding facilitating increased uptake in the tumor microenvironment” (Oncotarget, 2014).
